Experimental data from patent publication US12448399B2, “Cereblon-based KRAS degrading PROTACs and uses related thereto” (Arvinas Operations, Inc., priority 2023, dated 2025).

Target: T1, KRas-G12D (Homo sapiens, UniProt P01116, G12D)
T1 construct: insert the HiBiT tag onto the N-terminus of one or more of the endogenous KRas alleles; host or cells: AsPC-1 HiBiT-KRasG12D knock-in clone (one tagged allele, two untagged KRasG12D alleles)
Assay: HiBiT Degradation Assay (G12D), AsPC-1 HiBiT-KRasG12D cells, 24 hr
Assay type: cell-based
Conditions: for Dmax: ASPC1, AsPC-1 cells, maximum degradation observed; for DC50: AsPC-1 cells
Procedure: AsPC-1 (CRL-1682) cells were purchased from ATCC and are homozygous for the G12D mutation in KRas. AsPC-1 cells were cultured in GIBCO RPMI-1640 (ThermoFisher Scientific, catalog #61870-036, with Glutamax, no HEPES, no Na Pyruvate) supplemented with 10% FBS (ThermoFisher Scientific, catalog #2060357) and 1× Penicillin-Streptomycin (ThermoFisher Scientific, catalog #15140122, 10000 U/ml, 100×). For degradation assays, 384 well plates were used. Alamar blue was purchased from ThermoFisher Scientific (A50101) and used according to manufacturer instructions. The Nano-Glo® HiBiT Lytic Detection System and Nano-Glo® HiBiT Blotting System were purchased from Promega (#N3050 and #N2410) and used according to manufacturer instructions.
To create the AsPC-1 HiBiT-KRasG12D cell line, CRISPR-Cas9 was used to insert the HiBiT tag onto the N-terminus of one or more of the endogenous KRas alleles. See Schwinn, M. K. et al. (2018) CRISPR-mediated tagging of endogenous proteins with a luminescent peptide, ACS Chem. Biol. 13(2), 467-474. After knock-in of the tag, individual clones were isolated by single cell dilution and screened for HiBiT insertion by PCR. A clone was identified that contained the desired HiBiT-KRasG12D sequence at one allele while the remaining two KRasG12D alleles were untagged. This clone was used in further studies.
AsPC-1 HiBiT-KRasG12D cells were plated at 9000 or 15,000 cells/well in a 384 well plate (Corning #3770). Compounds of the present disclosure and positive controls were diluted in the appropriate cell media and applied to the plated cells resulting in a final concentration titration of 10 μM to […] in 0.5% DMSO. Gambogic acid was used as a positive control for cytotoxicity and titrated from 10 μM to 78 nM. All assays were performed in triplicate. Cells were treated with compounds for 24 hr at 37° C. in an incubator containing 5% CO2. Following treatment, alamar blue was used to determine if any compounds led to a loss in cell viability after 24 hr. The 10× alamar blue reagent was added to a final concentration of 1× as recommended by the manufacturer and cells were returned to the incubator for 4 hr. Plates were then allowed to equilibrate to RT and fluorescence was measured using a Perkin-Elmer EnVision. After completion of the fluorescence read, the liquid from each well was removed and the cells were washed with PBS. The Nano-Glo® HiBiT detection reagent was prepared according to the manufacturer's instructions and added to each well after the PBS wash was removed. Following incubation at room temperature for 45 min, the luminescence was read using the ultra-sensitive luminescence aperture on the Envision instrument.
Fluorescence values from the alamar blue treatment were normalized to the DMSO-only control for each compound titration. HiBiT luminescence was normalized to the DMSO-only control and the fractional HiBiT signal was plotted versus the log of the PROTAC concentration and fit to a 4-parameter dose-response model to obtain the concentration of the compound that leads to half maximal degradation (DC50) as well as the maximum degradation observed (Dmax, conventionally expressed as a percentage of control).

T1 sequence (P01116 1-188 isoform P01116-2 G12D): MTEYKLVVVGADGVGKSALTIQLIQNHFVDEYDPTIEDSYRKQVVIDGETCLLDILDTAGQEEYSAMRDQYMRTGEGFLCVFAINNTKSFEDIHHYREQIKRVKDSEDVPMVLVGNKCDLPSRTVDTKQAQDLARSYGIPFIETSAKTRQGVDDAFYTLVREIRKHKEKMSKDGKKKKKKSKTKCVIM

SMILES | Dmax [%] | DC50 [µM]
C#Cc1c(F)ccc2cc(O)cc(-c3ncc4c(N5CC6CCC(C5)N6)nc(OCCN5CCC(CC6CCN(c7cccc8c7CN(C7CCC(=O)NC7=O)C8=O)CC6)CC5)nc4c3F)c12 (stereo not drawn) [Compound 35, 3-[4-[4-[[1-[2-[4-(3,8-diazabicyclo[3.2.1]octan-3-yl)-7-(8-ethynyl-7-fluoro-3-hydroxy-1-naphthyl)-8-fluoro-pyrido[4,3-d]pyrimidin-2-yl]oxyethyl]-4-piperidyl]methyl]-1-piperidyl]-1-oxo-isoindolin-2-yl]piperidine-2,6-dione] | > 70 | 0.1 to 5.25
CCc1cccc2cc(O)cc(-c3ncc4c(N5CC6CCC(C5)N6)nc(OCCN5CCN(c6ccc(C(=O)NC7CCC(=O)NC7=O)c(F)c6)CC5)nc4c3F)c12 (stereo not drawn) [Compound 37] |  | > 1
CCc1cccc2cc(O)cc(-c3ncc4c(N5CC6CCC(C5)N6)nc(OCCN5CCC(c6ccc7c(c6)CN(C6CCC(=O)NC6=O)C7=O)CC5)nc4c3F)c12 (stereo not drawn) [Compound 38] |  | 0.1 to 5.25
CCc1cccc2cc(O)cc(-c3ncc4c(N5CC6CCC(C5)N6)nc(OCCN5CCN(c6ccc7c(c6)CN(C6CCC(=O)NC6=O)C7=O)CC5)nc4c3F)c12 (stereo not drawn) [Compound 39] | ≤ 25 | 0.25 to 1
CCc1cccc2cc(O)cc(-c3ncc4c(N5CC6CCC(C5)N6)nc(OCCN5CCN(c6ccc7c(c6)C(=O)N(C6CCC(=O)NC6=O)C7=O)CC5)nc4c3F)c12 (stereo not drawn) [Compound 40] | ≤ 25 | > 1
CCc1cccc2cc(O)cc(-c3ncc4c(N5CC6CCC(C5)N6C)nc(OCCN5CCC(CC6CCN(CC7CCN(c8cccc9c8CN(C8CCC(=O)NC8=O)C9=O)CC7)CC6)CC5)nc4c3F)c12 (stereo not drawn) [Compound 42, 3-[4-[4-[[4-[[1-[2-[7-(8-ethyl-3-hydroxy-1-naphthyl)-8-fluoro-4-(8-methyl-3,8-diazabicyclo[3.2.1]octan-3-yl)pyrido[4,3-d]pyrimidin-2-yl]oxyethyl]-4-piperidyl]methyl]-1-piperidyl]methyl]-1-piperidyl]-1-oxo-isoindolin-2-yl] piperidine-2,6-dione] |  | > 1
C#Cc1c(F)ccc2cc(O)cc(-c3ncc4c(N5CC6CCC(C5)N6)nc(OCCN5CCC(CC6CCN(CC7CCN(c8cccc9c8CN(C8CCC(=O)NC8=O)C9=O)CC7)CC6)CC5)nc4c3F)c12 (stereo not drawn) [Compound 43, 3-[4-[4-[[4-[[1-[2-[4-(3,8-diazabicyclo[3.2.1]octan-3-yl)-7-(8-ethynyl-7-fluoro-3-hydroxy-1-naphthyl)-8-fluoro-pyrido[4,3-d]pyrimidin-2-yl]oxyethyl]-4-piperidyl]methyl]-1-piperidyl]methyl]-1-piperidyl]-1-oxo-isoindolin-2-yl] piperidine-2,6-dione] | > 70 | < 5.1
CCc1cccc2cc(O)cc(-c3nc(N4CC5CCC(C4)N5)c4cnc(OCCN5CCC(CC6CCN(CC7CCN(c8cccc9c8CN(C8(C)CCC(=O)NC8=O)C9=O)CC7)CC6)CC5)nc4c3F)c12 (stereo not drawn) [Compound 44] |  | > 1
CCc1cccc2cc(O)cc(-c3ncc4c(N5CC6CCC(C5)N6)nc(OCCN5CCC(CC6CCN(c7cccc8c7CN(C7CCC(=O)N(C)C7=O)C8=O)CC6)CC5)nc4c3F)c12 (stereo not drawn) [Compound 45] |  | 0.25 to 1
CCc1cccc2cc(O)cc(-c3ncc4c(N5CC6CCC(C5)N6)nc(OCCN5CCC(CC6CCN(CC7CCN(c8cccc9c8CN(C8CCC(=O)N(C)C8=O)C9=O)CC7)CC6)CC5)nc4c3F)c12 (stereo not drawn) [Compound 46] |  | > 1
CCc1cccc2cc(O)cc(-c3ncc4c(N5CC6CCC(C5)N6C)nc(OC[C@@]56CCCN5[C@H](COC(=O)N5CCN(c7ccc8c(c7)CN(C7CCC(=O)NC7=O)C8=O)CC5)CC6)nc4c3F)c12 (stereo partly drawn) [Compound 47, [(3S,8S)-8-[[7-(8-ethyl-3-hydroxy-1-naphthyl)-8-fluoro-4-(8-methyl-3,8-diazabicyclo[3.2.1]octan-3-yl)pyrido[4,3-d]pyrimidin-2-yl]oxymethyl]-1,2,3,5,6,7-hexahydropyrrolizin-3-yl]methyl4-[2-(2,6-dioxo-3-piperidyl)-1-oxo-isoindolin-5-yl]piperazine-1-carboxylate] | ≤ 25 | 0.25 to 1
CCc1cccc2cc(O)cc(-c3ncc4c(N5CC6CCC(C5)N6C)nc(OC[C@]56CCCN5[C@@H](COC(=O)N5CCN(c7ccc8c(c7)CN(C7CCC(=O)NC7=O)C8=O)CC5)CC6)nc4c3F)c12 (stereo partly drawn) [Compound 48, [(3R,8R)-8-[[7-(8-ethyl-3-hydroxy-1-naphthyl)-8-fluoro-4-(8-methyl-3,8-diazabicyclo[3.2.1]octan-3-yl)pyrido[4,3-d]pyrimidin-2-yl]oxymethyl]-1,2,3,5,6,7-hexahydropyrrolizin-3-yl]methyl4-[2-(2,6-dioxo-3-piperidyl)-1-oxo-isoindolin-5-yl]piperazine-1-carboxylate] |  | > 1
CCc1cccc2cc(O)cc(-c3ncc4c(N5CC6CCC(C5)N6C)nc(OC[C@@]56CCCN5[C@H](COC(=O)N5CCN(c7cccc8c7CN(C7CCC(=O)NC7=O)C8=O)CC5)CC6)nc4c3F)c12 (stereo partly drawn) [Compound 49, [(3S,8S)-8-[[7-(8-ethyl-3-hydroxy-1-naphthyl)-8-fluoro-4-(8-methyl-3,8-diazabicyclo[3.2.1]octan-3-yl)pyrido[4,3-d]pyrimidin-2-yl]oxymethyl]-1,2,3,5,6,7-hexahydropyrrolizin-3-yl]methyl 4-[2-(2,6-dioxo-3-piperidyl)-1-oxo-isoindolin-4-yl]piperazine-1-carboxylate] |  | > 1
CCc1cccc2cc(O)cc(-c3ncc4c(N5CC6CCC(C5)N6)nc(OC[C@@]56CCCN5[C@H](COC(=O)N5CCN(c7ccc8c(c7)CN(C7CCC(=O)N(C)C7=O)C8=O)CC5)CC6)nc4c3F)c12 (stereo partly drawn) [Compound 50, [(3S,8S)-8-[[4-(3,8-diazabicyclo[3.2.1]octan-3-yl)-7-(8-ethyl-3-hydroxy-1-naphthyl)-8-fluoro-pyrido[4,3-d]pyrimidin-2-yl]oxymethyl]-1,2,3,5,6,7-hexahydropyrrolizin-3-yl]methyl4-[2-(1-methyl-2,6-dioxo-3-piperidyl)-1-oxo-isoindolin-5-yl]piperazine-1-carboxylate] | ≤ 25 | < 5.1
CCc1cccc2cc(O)cc(-c3ncc4c(N5CC6CCC(C5)N6C)nc(OC[C@]56CCCN5[C@@H](COC(=O)N5CCN(c7cccc8c7CN(C7CCC(=O)NC7=O)C8=O)CC5)CC6)nc4c3F)c12 (stereo partly drawn) [Compound 51, [(3R,8R)-8-[[7-(8-ethyl-3-hydroxy-1-naphthyl)-8-fluoro-4-(8-methyl-3,8-diazabicyclo[3.2.1]octan-3-yl)pyrido[4,3-d]pyrimidin-2-yl]oxymethyl]-1,2,3,5,6,7-hexahydropyrrolizin-3-yl]methyl4-[2-(2,6-dioxo-3-piperidyl)-1-oxo-isoindolin-4-yl]piperazine-1-carboxylate] |  | > 1
CCc1cccc2cc(O)cc(-c3ncc4c(N5CC6CCC(C5)N6)nc(OC[C@@]56CCCN5[C@H](COC(=O)N5CCN(c7cccc8c7CN(C7CCC(=O)N(C)C7=O)C8=O)CC5)CC6)nc4c3F)c12 (stereo partly drawn) [Compound 52, [(3S,8S)-8-[[4-(3,8-diazabicyclo[3.2.1]octan-3-yl)-7-(8-ethyl-3-hydroxy-1-naphthyl)-8-fluoro-pyrido[4,3-d]pyrimidin-2-yl]oxymethyl]-1,2,3,5,6,7-hexahydropyrrolizin-3-yl]methyl 4-[2-(1-methyl-2,6-dioxo-3-piperidyl)-1-oxo-isoindolin-4-yl]piperazine-1-carboxylate] | ≤ 25 | 0.25 to 1
CCc1cccc2cc(O)cc(-c3ncc4c(N5CC6CCC(C5)N6)nc(OC[C@]56CCCN5[C@@H](COC(=O)N5CCN(c7ccc8c(c7)CN(C7CCC(=O)N(C)C7=O)C8=O)CC5)CC6)nc4c3F)c12 (stereo partly drawn) [Compound 53, [(3R,8R)-8-[[4-(3,8-diazabicyclo[3.2.1]octan-3-yl)-7-(8-ethyl-3-hydroxy-1-naphthyl)-8-fluoro-pyrido[4,3-d]pyrimidin-2-yl]oxymethyl]-1,2,3,5,6,7-hexahydropyrrolizin-3-yl]methyl4-[2-(1-methyl-2,6-dioxo-3-piperidyl)-1-oxo-isoindolin-5-yl]piperazine-1-carboxylate] |  | 0.1 to 5.25
